# Data reported in the supplement of paper PMC4314810.
# ± gives the standard deviation of the averaged measurements.
# System: MCF7
# Assay: HRG-induced Akt activation (dPAkt = log2 pAkt/Akt HRG-stimulated minus log2 pAkt/Akt basal) (log2 ratio difference); higher = stronger HRG-induced Akt(T308) phosphorylation
# Details: miRNA mimic concentration 10 nM; time after transfection 72 h; heregulin 10 ng/ml; stimulation time 1 h
# Method in brief: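 MCF7 cells ([…], 96-well plates) carrying one of 879 miRNA mimics, transfected at 10 nM final with Lipofectamine RNAiMax in two biological replicates, were stimulated after 72 h with 10 ng/ml heregulin-beta1 for 1 h or left unstimulated. Phospho-Akt(T308) and total Akt in cells fixed with 4% PFA were read by In-Cell Western on an Odyssey and corrected for column-wise fixation decay to give log2(pAkt/Akt). Heregulin-induced Akt activation is the replicate mean of stimulated minus unstimulated ratios.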
row,Sequence,HRG-induced Akt activation (log2)
1,UGGUGCGGAGAGGGCCCACAGUG,0.984 ± 0.11
2,AAGUGCUUCCUUUUAGAGGGUU,0.817 ± 0.012
3,UGAUUGUAGCCUUUUGGAGUAGA,1.96 ± 0.18
4,UCCGGUUCUCAGGGCUCCACC,1.83 ± 0.26
5,AUUGACACUUCUGUGAGUAGA,1.55 ± 0.046
6,ACUGGACUUGGAGUCAGAAGG,1.47 ± 0.21
7,UGUCAGUUUGUCAAAUACCCCA,1.28 ± 0.73
8,CGGGCGUGGUGGUGGGGG,1.56 ± 0.11
9,UGGGGAGCUGAGGCUCUGGGGGUG,1.74 ± 0.26
10,UAUGUAAUAUGGUCCACAUCUU,2.01 ± 0.2
11,CGGCGGGGACGGCGAUUGGUC,2.14 ± 0.33
12,UCUGCUCAUACCCCAUGGUUUCU,1.15 ± 0.24
13,CGGGUCGGAGUUAGCUCAAGCGG,1.44 ± 0.098
14,AGAAGGAAAUUGAAUUCAUUUA,2.39 ± 0.29
15,UUUUUCAUUAUUGCUCCUGACC,1.62 ± 0.14
16,AGUCAUUGGAGGGUUUGAGCAG,1.86 ± 0.057
17,UUAGGCCGCAGAUCUGGGUGA,1.39 ± 0.89
18,AUCAUAGAGGAAAAUCCACGU,2.13 ± 0.46
19,CUCCCACAUGCAGGGUUUGCA,1.81 ± 0.022
20,UUCUCAAGGAGGUGUCGUUUAU,0.993 ± 0.67
21,UCUUGGAGUAGGUCAUUGGGUGG,1.56 ± 0.046
22,UGCACCAUGGUUGUCUGAGCAUG,1.29 ± 0.33
23,UUCCCUUUGUCAUCCUUCGCCU,1 ± 0.3
24,AUGUAUGUGUGCAUGUGCAUG,1.62 ± 0.4

row,Sequence,HRG-induced Akt activation (log2)
1,UGUUUUGAUAACAGUAAUGU,1.44 ± 0.064
2,GCAAAGCACACGGCCUGCAGAGA,1.27 ± 0.08
3,GUGUCUUUUGCUCUGCAGUCA,1.75 ± 0.15
4,AUGCACCUGGGCAAGGAUUCUG,1.77 ± 0.18
5,AUCAACAGACAUUAAUUGGGCGC,2.3 ± 0.38
6,GUGAAAUGUUUAGGACCACUAG,1.97 ± 0.049
7,CAGUUAUCACAGUGCUGAUGCU,1.66 ± 0.42
8,CAGGAUGUGGUCAAGUGUUGUU,1.41 ± 0.093
9,UAUGUCUGCUGACCAUCACCUU,2.316 ± 0.0055
10,GACUAUAGAACUUUCCCCCUCA,1.07 ± 0.064
11,CAAAUUCGUAUCUAGGGGAAUA,1.57 ± 0.036
12,CCUAUUCUUGGUUACUUGCACG,1.29 ± 0.1
13,AGGGUAAGCUGAACCUCUGAU,1.51 ± 0.17
14,UGGAGUCCAGGAAUCUGCAUUUU,0.279 ± 0.71
15,AAGGAGCUCACAGUCUAUUGAG,1.97 ± 0.2
16,CUGGACUGAGCCGUGCUACUGG,1.98 ± 0.076
17,CAAAGUGCUGUUCGUGCAGGUAG,1.46 ± 0.35
18,AAGACGGGAGGAAAGAAGGGAG,1.22 ± 0.24
19,UGUAAACAUCCUACACUCUCAGC,0.867 ± 0.099
20,CUAGUGAGGGACAGAACCAGGAUUC,1.82 ± 0.032
21,CGGGGCAGCUCAGUACAGGAU,0.9798 ± 0.0068
22,UGGUUGUAGUCCGUGCGAGAAUA,1.37 ± 0.19
23,CUGUAUGCCCUCACCGCUCA,2.27 ± 0.32
24,AAGUAGUUGGUUUGUAUGAGAUGGUU,1.424 ± 0.014

row,Sequence,HRG-induced Akt activation (log2)
1,AACAUUCAACCUGUCGGUGAGU,2.38 ± 0.33
2,UAAUUUUAUGUAUAAGCUAGU,1.79 ± 0.15
3,UAGUACCAGUACCUUGUGUUCA,1.19 ± 0.3
4,AGCCUGAUUAAACACAUGCUCUGA,1.23 ± 0.11
5,AGGGGGAAAGUUCUAUAGUCC,1.2 ± 0.07
6,CUCUAGAGGGAAGCGCUUUCUG,1.51 ± 0.15
7,AUGGAGAUAGAUAUAGAAAU,1.51 ± 0.11
8,UACCCUGUAGAUCCGAAUUUGUG,1.47 ± 0.25
9,UAUACCUCAGUUUUAUCAGGUG,1.94 ± 0.15
10,AAAAGCUGGGUUGAGAGGA,1.507 ± 0.011
11,CACAAGGUAUUGGUAUUACCU,1.79 ± 0.25
12,UCCCUGUUCGGGCGCCA,1.65 ± 0.52
13,UAGCAGCACAGAAAUAUUGGC,1.42 ± 0.76
14,GGCAGGUUCUCACCCUCUCUAGG,2.11 ± 0.13
15,CCUGUUCUCCAUUACUUGGCUC,1.53 ± 0.36
16,UGAGUGCCGGUGCCUGCCCUG,1.43 ± 0.08
17,AUGCUGACAUAUUUACUAGAGG,0.706 ± 0.25
18,GUUUGCACGGGUGGGCCUUGUCU,1.88 ± 0.072
19,UGAGCUAAAUGUGUGCUGGGA,1.26 ± 0.69
20,CUGCAAUGUAAGCACUUCUUAC,0.874 ± 0.36
21,AGAUCGACCGUGUUAUAUUCGC,2.02 ± 0.14
22,ACAGUAGAGGGAGGAAUCGCAG,1.42 ± 0.22
23,AUUCUAAUUUCUCCACGUCUUU,1.44 ± 0.29
24,CACCCGUAGAACCGACCUUGCG,1.4 ± 0.22

row,Sequence,HRG-induced Akt activation (log2)
1,UCCUUCAUUCCACCGGAGUCUG,1.66 ± 0.26
2,UCAGGCCAGGCACAGUGGCUCA,1.57 ± 0.41
3,AAAGUGCUUCCUUUUAGAGGG,0.928 ± 0.12
4,UUAUAAUACAACCUGAUAAGUG,1.04 ± 0.33
5,UUUGGCAAUGGUAGAACUCACACU,1.75 ± 0.06
6,CCAAAACUGCAGUUACUUUUGC,1.39 ± 0.13
7,UAGCUUAUCAGACUGAUGUUGA,1.73 ± 0.11
8,AUCACAUUGCCAGGGAUUUCC,1.12 ± 0.24
9,UACGUAGAUAUAUAUGUAUUUU,1.5 ± 0.16
10,AACAUUCAUUGCUGUCGGUGGGU,1.77 ± 0.45
11,UUCUCCAAAAGAAAGCACUUUCUG,2.57 ± 0.12
12,UCCUCUUCUCCCUCCUCCCAG,1.77 ± 0.039
13,CUAUACAACCUACUGCCUUCCC,1.27 ± 0.16
14,CCAGACAGAAUUCUAUGCACUUUC,1.93 ± 0.7
15,AACAGGUGACUGGUUAGACAA,2.3 ± 0.13
16,AGACCAUGGGUUCUCAUUGU,1.18 ± 0.43
17,UCACACCUGCCUCGCCCCCC,1.05 ± 0.31
18,UGAGGUAGUAGGUUGUGUGGUU,1.08 ± 0.14
19,CUGGGAGAAGGCUGUUUACUCU,1.04 ± 0.2
20,ACUCCAUUUGUUUUGAUGAUGGA,1.19 ± 0.29
21,GGAUUCCUGGAAAUACUGUUCU,1.2 ± 0.74
22,UACUCAGGAGAGUGGCAAUCAC,1.1 ± 0.15
23,CUGAAGCUCAGAGGGCUCUGAU,1.38 ± 0.13
24,UCUACAAAGGAAAGCGCUUUCU,1.02 ± 0.55

row,Sequence,HRG-induced Akt activation (log2)
1,AGCCUGGAAGCUGGAGCCUGCAGU,1.35 ± 0.14
2,UGUGACAGAUUGAUAACUGAAA,1.84 ± 0.056
3,CCUCUAGAUGGAAGCACUGUCU,1.41 ± 0.026
4,UGAGGCAGUAGAUUGAAU,1.49 ± 0.26
5,GUGUGUGGAAAUGCUUCUGC,2.16 ± 0.41
6,CUGUACAGCCUCCUAGCUUUCC,2.26 ± 0.15
7,CCCAGUGUUUAGACUAUCUGUUC,1.58 ± 0.18
8,AACCAUCGACCGUUGAGUGGAC,0.92 ± 0.14
9,CUCUCACCACUGCCCUCCCACAG,1.9 ± 0.13
10,AGAGGUUGCCCUUGGUGAAUUC,1.6 ± 0.19
11,UAAGGUGCAUCUAGUGCAGAUAG,2.27 ± 0.37
12,ACUGCUGAGCUAGCACUUCCCG,1.04 ± 0.26
13,UUAUUGCUUAAGAAUACGCGUAG,1.64 ± 0.095
14,GCAGCAGAGAAUAGGACUACGUC,1.7 ± 0.032
15,GUUGGAGGAUGAAAGUACGGAGUGAU,0.878 ± 1.2
16,UCCUGCGCGUCCCAGAUGCCC,1.15 ± 0.34
17,CAAAGUGCUCAUAGUGCAGGUAG,1.34 ± 0.39
18,CUGACCUAUGAAUUGACAGCC,1.18 ± 0.15
19,UCCAGCAUCAGUGAUUUUGUUG,1.77 ± 0.17
20,ACUCAAAACCCUUCAGUGACUU,1.79 ± 0.18
21,ACACAGGGCUGUUGUGAAGACU,1.74 ± 0.1
22,CUCCCACUGCUUCACUUGACUA,1.32 ± 0.27
23,GAGCUUAUUCAUAAAAGUGCAG,1.76 ± 0.036
24,CUCCUGAGCCAUUCUGAGCCUC,1.48 ± 0.25

row,Sequence,HRG-induced Akt activation (log2)
1,UCUAUACAGACCCUGGCUUUUC,1.14 ± 0.18
2,UAACACUGUCUGGUAAAGAUGG,0.763 ± 0.24
3,CACCCGGCUGUGUGCACAUGUGC,1.53 ± 0.48
4,AAUUGCACUUUAGCAAUGGUGA,1.14 ± 0.04
5,UGAGAACUGAAUUCCAUAGGCU,2.34 ± 0.1
6,CCCCCACAACCGCGCUUGACUAGCU,1.4 ± 0.091
7,UGUAAACAUCCUACACUCAGCU,0.757 ± 0.3
8,UAAAGUAAAUAUGCACCAAAA,1.45 ± 0.18
9,CGGGUGGAUCACGAUGCAAUUU,2.37 ± 0.063
10,UUGCAGCUGCCUGGGAGUGACUUC,0.96 ± 0.045
11,AUCGCUGCGGUUGCGAGCGCUGU,1.63 ± 0.063
12,AGCAGCAUUGUACAGGGCUAUCA,1.35 ± 0.26
13,UAUACAAGGGCAAGCUCUCUGU,1.05 ± 0.18
14,UGAUAUGUUUGAUAUAUUAGGU,1.52 ± 0.077
15,UAAGGCACCCUUCUGAGUAGA,1.51 ± 0.1
16,CUGGCCCUCUCUGCCCUUCCGU,1.18 ± 0.4
17,AAGCUGCCAGUUGAAGAACUGU,1.23 ± 0.26
18,UGGACGGAGAACUGAUAAGGGU,1.48 ± 0.21
19,UAUGGCUUUUCAUUCCUAUGUGA,1.12 ± 0.29
